Measured values from US8486991B2, “Enantiomerically pure phosphoindoles as HIV inhibitors” (Idenix Pharmaceuticals, Inc., priority 2006, dated 2013).
Entries after “also recorded” stand apart in the source; their conditions may differ. Where two headings read alike, the source gives them in different places.

Columns and labels:
[1] = system: CYP3A4 (activation of PXR in DPX2 cells); experiment: CYP3A4 induction screen in DPX2 cells; assay type: cell-based, human; conditions: extent compared with rifampicine, mifepristone, androstanol
Text: The potential for in vitro induction of CYP3A4 was screened in DPX2 cells. The DPX2 cell line is a derivative of a human hepatocellular carcinoma cell line (HepG2) transformed with the human pregnane x receptor (PXR) and a reporter gene vector containing the enhancer region of CYP3A4. The potential for in vitro induction of CYP1A2 was screened in CYP1A2-DRE cells. The CYP1A2-DRE cell line is a stably transformed HepG2 cells with dioxin response elements (DRE) and reporter gene containing CYP1A2 promoter elements. The extent of CYP3A4 induction was determined by comparing the activation of PXR obtained with test article to that obtained with rifampicine (potent inducer), mifepristone (moderate inducer) and androstanol (weak inducer). The extent of CYP1A2 induction was determined by comparing the activation of the aryl hydrocarbon receptor (AhR) obtained with test article to that obtained with TCDD (potent inducer), omeprazole (moderate inducer), and 2-acetylaminofluorene (weak inducer).

[2] = In vitro half-life in liver microsomes, dog; assay type: in vitro ADME; conditions: up to one hour, longer half-lives are extrapolated, n=1
Method: (§1) In vitro metabolism was assessed using liver microsomes for all species. Compounds were incubated at 1 μM with liver microsomes for up to one hour. Reported half-lives greater than the total incubation time are extrapolated values. Extracts were assayed for disappearance of parent compound by LC-MS/MS detection.
(§2) Data represents one independent experiment conducted.

[3] = Compound depletion in hepatocytes, rat; assay type: in vitro ADME; conditions: up to 2 hours, read-out: t½, Compound Depletion in Hepatocytes, Rat
Method: Fresh hepatocytes were plated onto collagen-coated plates and exposed to test compounds at 1 μM for up to 2 hours. Tissue culture medium was assayed for compound depletion by LC/MS detection. Values in Table 23 represent independent experiments from 5 to 7 donors.

[4] = In vitro half-life in liver microsomes, rat; assay type: in vitro ADME; conditions: up to one hour, longer half-lives are extrapolated, n=1
Method: as §1, §2

wild-type HIV-1 virus = experiment: In vitro drug-drug interaction with NRTIs and PIs, MT-4 cells, 45% HS; assay type: cell-based; conditions: 45% human serum, low (1×) and high (5×) concentration
Method: The in vitro effect of each antiretroviral drug on the antiviral activity of either test article was tested in triplicate on wild-type HIV-1 virus infection of MT-4 human T cells using a standard drug susceptibility assay (DSA) performed in 45% human serum (HS) to provide a better estimate of interactions that would occur under protein binding conditions found in vivo. Compound I or Compound III were titrated alone or in combination with each NRTI or PI.
The impact of each NRTI or PI on the efficacy of Compound I or Compound III was tested at two different drug concentrations, a “low” (1×) and a “high” (5×) concentration; the high concentration used for each compound was determined from pilot experiments conducted to ensure that measurable inhibition values could still be obtained in the presence of 45% HS.
These in vitro drug-drug interaction studies were powered primarily to determine the potential for negative interactions between the different classes of HIV drugs, rather than to examine the potential for synergy between the different agents.

CYP1A2 = molecular target: T1, CYP1A2 (Homo sapiens, UniProt P05177); experiment: Human liver microsomal CYP450 inhibition, CYP1A2; conditions: for IC50, CYP1A2: human liver microsomes
T1 sequence (P05177 1-516): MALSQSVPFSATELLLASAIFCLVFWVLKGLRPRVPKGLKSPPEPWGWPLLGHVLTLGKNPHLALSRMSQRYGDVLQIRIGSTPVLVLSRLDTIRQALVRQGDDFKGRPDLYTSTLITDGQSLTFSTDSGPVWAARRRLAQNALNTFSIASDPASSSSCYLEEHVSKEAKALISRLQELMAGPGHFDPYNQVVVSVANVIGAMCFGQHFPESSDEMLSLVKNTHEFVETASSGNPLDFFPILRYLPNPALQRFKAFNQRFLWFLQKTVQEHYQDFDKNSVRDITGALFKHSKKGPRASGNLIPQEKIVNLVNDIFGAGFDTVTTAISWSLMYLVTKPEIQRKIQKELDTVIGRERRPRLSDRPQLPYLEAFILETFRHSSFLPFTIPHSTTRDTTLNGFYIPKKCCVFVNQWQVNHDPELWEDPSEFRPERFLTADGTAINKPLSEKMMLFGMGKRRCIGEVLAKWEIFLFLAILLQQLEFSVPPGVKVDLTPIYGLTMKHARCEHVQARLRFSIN
Method: (§5) In addition, the type of inhibition was also evaluated.
(§6) Enzyme kinetic studies of cytochrome P450 isozyme inhibition were conducted using human liver microsomes.

CYP2C9 = CYP2C9 (Homo sapiens, UniProt P11712); experiment: Human liver microsomal CYP450 inhibition, CYP2C9; conditions: for Type of inhibition, CYP2C9 (Diclofenac): human liver microsomes
CYP2C9, sequence (P11712 whole entry): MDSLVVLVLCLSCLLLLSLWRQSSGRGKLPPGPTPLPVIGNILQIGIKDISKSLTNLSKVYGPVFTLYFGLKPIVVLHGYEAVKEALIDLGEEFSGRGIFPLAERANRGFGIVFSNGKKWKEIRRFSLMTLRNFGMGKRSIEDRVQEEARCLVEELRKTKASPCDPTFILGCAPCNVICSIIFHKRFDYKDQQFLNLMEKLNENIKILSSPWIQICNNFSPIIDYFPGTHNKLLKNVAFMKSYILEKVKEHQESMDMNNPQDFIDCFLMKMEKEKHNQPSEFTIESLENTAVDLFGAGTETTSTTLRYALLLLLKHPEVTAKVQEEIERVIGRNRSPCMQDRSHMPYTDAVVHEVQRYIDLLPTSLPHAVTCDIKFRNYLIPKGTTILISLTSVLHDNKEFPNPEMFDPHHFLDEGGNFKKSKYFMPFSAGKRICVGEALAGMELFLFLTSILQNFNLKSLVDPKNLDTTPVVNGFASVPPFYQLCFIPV
Method: as §5, §6
Probe substrate for 2C8 was paclitaxel, probe substrate for 2C9 was diclofenac and for 3A4 probe substrates were midazolam and testosterone.

HIV-2 ROD = HIV-2 ROD WT in H9 cell assay; assay type: cell-based
Method: The susceptibility of HIV type 2 ROD in H9 cells to Compound I and Compound III was determined against zidovudine (AZT) as a control.

[5] = molecular target: T2, HIV-1 RT M184V mutant enzyme (Human immunodeficiency virus type 1 group M subtype B, UniProt P03366, M783V); experiment: biochemical; conditions: for Average Fold Changes ± Standard Deviation, M184V: Table 4
T2 construct: Antiviral in vitro activity against site-directed mutant HIV-1 RT enzymes
Text: (§3) In Vitro Antiviral Activity Against Additional Mutant HIV RT Enzymes
(§4) The studies are summarized in the text that follows.

[6] = molecular target: T3, HIV-1 RT Y188L mutant enzyme (Human immunodeficiency virus type 1 group M subtype B, UniProt P03366, Y787L); experiment: biochemical; conditions: for Average Fold Changes ± Standard Deviation, Y188L: Table 4
T3 construct: Antiviral in vitro activity against site-directed mutant HIV-1 RT enzymes
Text: as §3, §4

[7] = molecular target: T4, HIV-1 RT V106M mutant enzyme (Human immunodeficiency virus type 1 group M subtype B, UniProt P03366, V705M); experiment: biochemical; conditions: for Average Fold Changes ± Standard Deviation, V106M: Table 4
T4 construct: Antiviral in vitro activity against site-directed mutant HIV-1 RT enzymes
Text: as §3, §4

[8] = human, pooled human liver microsomes, probe diclofenac
[9] = Table 18, highest concentration assayed 1.25 μM

| Structure (SMILES) | Induction, DPX2 (CYP3A4) [1] | interaction with 7 NRTIs or 6 PIs (wild-type HIV-1 virus) | IC50 (CYP1A2) [nM] | IC50, CYP1A2 (CYP1A2) | Ki (CYP2C9) [nM] | Type of inhibition, CYP2C9 (Diclofenac) (CYP2C9) | IC50 (CYP2C9; [8]) [nM] | EC50 Values (HIV-2 ROD; [9]) | IC50 [5] [nM] | Average Fold Changes ± Standard Deviation, M184V [5] [fold] | IC50 [6] [nM] | Average Fold Changes ± Standard Deviation, Y188L [6] [fold] | IC50 [7] [nM] | Average Fold Changes ± Standard Deviation, V106M [7] [fold] | also measured |
| --- | --- | --- | --- | --- | --- | --- | --- | --- | --- | --- | --- | --- | --- | --- | --- |
| CO[P@](=O)(c1cc(C)cc(/C=C/C#N)c1)c1c(C(N)=O)[nH]c2ccc(Cl)c(F)c12 [Compound I, (2-Carbamoyl-5-chloro-4-fluoro-1H-indol-3-yl)-[3-((E)-2-cyano-vinyl)-5-methyl-phenyl]-(R)-phosphinic acid methyl ester] | moderate inducers; also recorded: Moderate (n = 2) | no negative interaction observed; also recorded: none of the seven HIV NRTI drugs or the six HIV PI drugs tested exhibited a measurable negative or antagonistic interaction | > 20000 | not observed | 1400 | competitive inhibition | < 10000 | failed to suppress HIV-2 ROD replication | 290 ± 80 | 1.7 ± 0.5 | 1250 ± 380 | 6.0 ± 1.7 | 230 ± 60 | 1.2 ± 0.5 | half-life at 1 μM ([2]; microsomes): 19.3 min; half-life at 1 μM ([3]; hepatocytes): 33 ± 26 min; half-life at 1 μM ([4]; microsomes): 100 min; Type of inhibition, CYP2C9 (Diclofenac) (CYP2C9; listed as compound I): competitive inhibition; Ki (CYP2C9; [8]): 1450 nM; EC50 (HIV-2 ROD; Human immunodeficiency virus 2, H9, read-out: EC50 Values): > 1250 nM |
| CO[P@](=O)(c1cc(C)cc(/C=C/C#N)c1)c1c(C(N)=O)[nH]c2ccc(Cl)cc12 [Compound III, (2-Carbamoyl-5-chloro-1H-indol-3-yl)-[3-((E)-2-cyano-vinyl)-5-methyl-phenyl]-(R)-phosphinic acid methyl ester] | moderate inducers; also recorded: Moderate (n = 2) | no negative interaction observed; also recorded: none of the seven HIV NRTI drugs or the six HIV PI drugs tested exhibited a measurable negative or antagonistic interaction | > 20000 | not observed | 930 | competitive inhibition | < 10000 | failed to suppress HIV-2 ROD replication | 170 ± 80 | 0.8 ± 0.3 | 1150 ± 360 | 7.0 ± 5.9 | 200 ± 60 | 1.0 ± 0.3 | half-life at 1 μM ([2]; liver microsomes): 13.2 min; half-life at 1 μM ([3]; fresh hepatocytes plated on collagen-coated plates): 17 ± 15 min; half-life at 1 μM ([4]; liver microsomes): 88.8 min; Type of inhibition, CYP2C9 (Diclofenac) (CYP2C9; listed as compound III): competitive inhibition; EC50 (HIV-2 ROD; Human immunodeficiency virus 2, H9, Table 18, highest concentration assayed 1.25 μM, read-out: EC50 Values): > 1250 nM |
